Target: Inositol 1,4,5-trisphosphate receptor type 1 (Rattus norvegicus)
Experiment: Compound was tested for inhibition of specific [3H]Ins(1,4,5)P3 binding to Inositol 1,4,5-trisphosphate receptor in rat cerebellar membranes.

IC50: 27 nM
SMILES: O=P(O)(O)OC1C(O)C(CO)C(OP(=O)(O)O)C(OP(=O)(O)O)C1O [Phosphoric acid mono-((3S,5R,6R)-3,5-dihydroxy-2-hydroxymethyl-4,6-bis-phosphonooxy-cyclohexyl) ester]
